Here are results for eight molecules from ChEMBL document CHEMBL3991601, “The target landscape of clinical kinase drugs” (Science, 2017).

Assay [1] has as its target Adenylate kinase 2, mitochondrial (Homo sapiens, UniProt P54819).
Assay [2] concerns the target Insulin-like growth factor 1 receptor (Homo sapiens, UniProt P08069).
In assay [3] the target is Mitogen-activated protein kinase 10 (Homo sapiens, UniProt P53779).
For assay [4], the target named is T1, Mitogen-activated protein kinase 15 (Homo sapiens, UniProt Q8TD08).
T1 sequence (Q8TD08 whole entry): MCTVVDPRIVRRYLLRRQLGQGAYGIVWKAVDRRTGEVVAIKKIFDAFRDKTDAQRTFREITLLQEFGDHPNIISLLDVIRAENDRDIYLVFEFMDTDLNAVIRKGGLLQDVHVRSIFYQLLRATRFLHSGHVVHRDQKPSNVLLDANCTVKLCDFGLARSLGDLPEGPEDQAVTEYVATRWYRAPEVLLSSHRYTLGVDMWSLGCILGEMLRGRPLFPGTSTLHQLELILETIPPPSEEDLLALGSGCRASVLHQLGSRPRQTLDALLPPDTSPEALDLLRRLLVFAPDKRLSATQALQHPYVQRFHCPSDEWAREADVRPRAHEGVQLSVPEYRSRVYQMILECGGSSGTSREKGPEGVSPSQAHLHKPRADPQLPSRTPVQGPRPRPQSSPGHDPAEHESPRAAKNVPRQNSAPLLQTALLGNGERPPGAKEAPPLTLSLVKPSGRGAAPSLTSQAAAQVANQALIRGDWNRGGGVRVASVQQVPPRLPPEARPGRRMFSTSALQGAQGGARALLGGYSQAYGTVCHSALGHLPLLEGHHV

The target of assay [5] is Dual specificity protein kinase CLK1 (Homo sapiens, UniProt P49759).
Chain of Dual specificity protein kinase CLK1 (P49759 whole entry): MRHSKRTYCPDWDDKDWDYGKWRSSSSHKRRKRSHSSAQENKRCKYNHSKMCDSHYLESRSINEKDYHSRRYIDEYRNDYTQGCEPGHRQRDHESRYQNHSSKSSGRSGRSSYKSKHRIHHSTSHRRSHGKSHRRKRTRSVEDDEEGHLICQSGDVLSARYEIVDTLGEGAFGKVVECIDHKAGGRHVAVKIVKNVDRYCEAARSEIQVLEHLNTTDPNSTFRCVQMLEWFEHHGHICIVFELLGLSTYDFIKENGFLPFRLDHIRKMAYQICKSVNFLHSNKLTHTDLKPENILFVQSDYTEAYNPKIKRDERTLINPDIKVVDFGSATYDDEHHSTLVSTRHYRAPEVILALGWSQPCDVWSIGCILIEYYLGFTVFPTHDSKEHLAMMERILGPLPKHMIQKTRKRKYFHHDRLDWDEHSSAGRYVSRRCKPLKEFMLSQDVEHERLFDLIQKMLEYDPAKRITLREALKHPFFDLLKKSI
Assay [6] concerns the target T2, Signal recognition particle receptor subunit alpha (Homo sapiens, UniProt P08240).
T2 sequence (P08240 whole entry): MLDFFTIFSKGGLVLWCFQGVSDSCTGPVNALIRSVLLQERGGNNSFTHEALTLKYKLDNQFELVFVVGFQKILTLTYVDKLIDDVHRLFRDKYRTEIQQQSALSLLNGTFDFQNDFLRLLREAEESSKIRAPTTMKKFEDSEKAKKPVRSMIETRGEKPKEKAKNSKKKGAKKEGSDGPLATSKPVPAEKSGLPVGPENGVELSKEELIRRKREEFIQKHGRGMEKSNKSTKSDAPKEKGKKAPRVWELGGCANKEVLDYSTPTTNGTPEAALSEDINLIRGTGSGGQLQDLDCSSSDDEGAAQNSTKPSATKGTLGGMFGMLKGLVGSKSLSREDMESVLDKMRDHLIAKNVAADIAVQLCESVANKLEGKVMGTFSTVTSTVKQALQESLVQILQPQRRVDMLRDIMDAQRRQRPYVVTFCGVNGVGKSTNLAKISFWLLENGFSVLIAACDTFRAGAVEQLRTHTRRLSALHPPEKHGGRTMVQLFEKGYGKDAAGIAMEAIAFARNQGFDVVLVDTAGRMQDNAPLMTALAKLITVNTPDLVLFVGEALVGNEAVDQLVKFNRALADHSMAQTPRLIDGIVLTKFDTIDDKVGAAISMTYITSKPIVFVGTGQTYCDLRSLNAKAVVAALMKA

The target in assay [7] is T3, EKC/KEOPS complex subunit TP53RK (Homo sapiens, UniProt Q96S44).
T3 sequence (Q96S44 whole entry): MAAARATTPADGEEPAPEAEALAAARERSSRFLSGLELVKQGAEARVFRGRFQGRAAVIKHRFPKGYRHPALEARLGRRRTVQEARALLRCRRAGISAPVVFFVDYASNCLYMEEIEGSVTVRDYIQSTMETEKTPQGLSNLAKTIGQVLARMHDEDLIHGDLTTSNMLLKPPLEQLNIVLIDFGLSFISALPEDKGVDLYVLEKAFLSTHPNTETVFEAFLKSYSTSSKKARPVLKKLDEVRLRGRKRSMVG

The target in assay [8] is Cyclin-dependent kinase 4 (Homo sapiens, UniProt P11802).
Chain of Cyclin-dependent kinase 4 (P11802 whole entry): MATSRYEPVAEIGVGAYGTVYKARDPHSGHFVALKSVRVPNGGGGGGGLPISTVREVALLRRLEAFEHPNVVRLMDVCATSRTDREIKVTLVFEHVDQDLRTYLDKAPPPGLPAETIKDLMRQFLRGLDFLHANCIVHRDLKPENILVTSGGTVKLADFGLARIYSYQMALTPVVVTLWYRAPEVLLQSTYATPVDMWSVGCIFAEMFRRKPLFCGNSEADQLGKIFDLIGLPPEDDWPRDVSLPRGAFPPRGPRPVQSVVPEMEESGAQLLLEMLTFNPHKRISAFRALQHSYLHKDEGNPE
For assay [9], the target named is T4, cGMP-dependent protein kinase 1 (Homo sapiens, UniProt Q13976).
T4 sequence (Q13976 whole entry): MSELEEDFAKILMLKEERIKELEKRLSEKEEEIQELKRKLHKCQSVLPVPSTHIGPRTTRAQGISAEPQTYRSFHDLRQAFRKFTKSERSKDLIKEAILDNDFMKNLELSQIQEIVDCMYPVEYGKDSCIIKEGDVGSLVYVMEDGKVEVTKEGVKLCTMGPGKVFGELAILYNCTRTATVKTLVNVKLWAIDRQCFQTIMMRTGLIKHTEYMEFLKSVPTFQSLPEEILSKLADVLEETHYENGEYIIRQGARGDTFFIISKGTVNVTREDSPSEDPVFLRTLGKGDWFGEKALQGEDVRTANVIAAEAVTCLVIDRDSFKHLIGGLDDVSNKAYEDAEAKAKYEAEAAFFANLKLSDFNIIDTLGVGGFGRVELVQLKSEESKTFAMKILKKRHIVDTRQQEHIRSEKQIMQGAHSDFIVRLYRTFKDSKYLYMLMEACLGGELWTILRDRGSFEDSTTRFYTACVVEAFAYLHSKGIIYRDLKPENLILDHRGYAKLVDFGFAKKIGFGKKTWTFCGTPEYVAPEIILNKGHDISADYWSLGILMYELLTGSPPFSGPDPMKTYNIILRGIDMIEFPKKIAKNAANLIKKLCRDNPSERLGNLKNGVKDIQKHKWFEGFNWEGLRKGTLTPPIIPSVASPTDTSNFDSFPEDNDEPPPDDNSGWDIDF

The target in assay [10] is Cyclin-dependent kinase 12 (Homo sapiens, UniProt Q9NYV4).
The target of assay [11] is Cyclin-dependent kinase 5 (Homo sapiens, UniProt Q00535).
Chain of Cyclin-dependent kinase 5 (Q00535 whole entry, canonical isoform): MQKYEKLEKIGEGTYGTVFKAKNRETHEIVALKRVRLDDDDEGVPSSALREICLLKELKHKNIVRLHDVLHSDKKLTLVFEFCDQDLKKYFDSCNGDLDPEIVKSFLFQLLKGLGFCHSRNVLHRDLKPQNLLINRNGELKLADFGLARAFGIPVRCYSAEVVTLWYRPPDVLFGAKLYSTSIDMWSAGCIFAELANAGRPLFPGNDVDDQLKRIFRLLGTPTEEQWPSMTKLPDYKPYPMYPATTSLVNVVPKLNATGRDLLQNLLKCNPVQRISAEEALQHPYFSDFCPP
Assay [12] has as its target Casein kinase I isoform epsilon (Homo sapiens, UniProt P49674).
A further assay addresses Ephrin type-A receptor 4 (Homo sapiens, UniProt P54764).
Assay [13] addresses Serine/threonine-protein kinase/endoribonuclease IRE1 (Homo sapiens, UniProt O75460).
Assay [14] deals with Glycogen synthase kinase-3 beta (Homo sapiens, UniProt P49841).
Chain of Glycogen synthase kinase-3 beta (P49841 whole entry): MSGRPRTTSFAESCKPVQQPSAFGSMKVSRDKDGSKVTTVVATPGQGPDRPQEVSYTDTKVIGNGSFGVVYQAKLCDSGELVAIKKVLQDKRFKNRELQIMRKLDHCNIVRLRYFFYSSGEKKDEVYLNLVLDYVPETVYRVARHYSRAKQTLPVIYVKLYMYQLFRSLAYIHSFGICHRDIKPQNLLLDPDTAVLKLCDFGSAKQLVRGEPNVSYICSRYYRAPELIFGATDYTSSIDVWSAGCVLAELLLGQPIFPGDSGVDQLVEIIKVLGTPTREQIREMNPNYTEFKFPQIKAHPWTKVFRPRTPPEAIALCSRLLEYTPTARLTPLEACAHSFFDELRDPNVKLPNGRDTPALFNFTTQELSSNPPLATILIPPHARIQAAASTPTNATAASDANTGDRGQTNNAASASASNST

The structures appear in SMILES notation. Active and inactive are the calls of the source. Rule as the data show it, for most assays here: actives have a measured Kd and inactives only a lower limit.
Also: in the data inactive means no Kd found up to 30 µM.

Chain of Mitogen-activated protein kinase 10 (P53779 whole entry): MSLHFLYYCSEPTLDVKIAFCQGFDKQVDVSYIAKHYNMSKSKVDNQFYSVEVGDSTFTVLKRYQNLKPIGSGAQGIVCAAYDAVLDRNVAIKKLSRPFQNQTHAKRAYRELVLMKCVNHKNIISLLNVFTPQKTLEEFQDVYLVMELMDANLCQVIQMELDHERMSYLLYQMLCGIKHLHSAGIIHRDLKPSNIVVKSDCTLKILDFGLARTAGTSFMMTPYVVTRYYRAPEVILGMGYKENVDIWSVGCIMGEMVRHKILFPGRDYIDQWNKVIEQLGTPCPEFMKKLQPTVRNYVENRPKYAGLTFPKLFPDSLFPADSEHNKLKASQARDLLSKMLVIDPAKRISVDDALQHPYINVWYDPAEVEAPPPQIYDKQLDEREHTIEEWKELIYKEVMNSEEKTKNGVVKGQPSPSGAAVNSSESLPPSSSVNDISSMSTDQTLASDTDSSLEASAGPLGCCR
Chain of Insulin-like growth factor 1 receptor (P08069 31-736 limits assumed): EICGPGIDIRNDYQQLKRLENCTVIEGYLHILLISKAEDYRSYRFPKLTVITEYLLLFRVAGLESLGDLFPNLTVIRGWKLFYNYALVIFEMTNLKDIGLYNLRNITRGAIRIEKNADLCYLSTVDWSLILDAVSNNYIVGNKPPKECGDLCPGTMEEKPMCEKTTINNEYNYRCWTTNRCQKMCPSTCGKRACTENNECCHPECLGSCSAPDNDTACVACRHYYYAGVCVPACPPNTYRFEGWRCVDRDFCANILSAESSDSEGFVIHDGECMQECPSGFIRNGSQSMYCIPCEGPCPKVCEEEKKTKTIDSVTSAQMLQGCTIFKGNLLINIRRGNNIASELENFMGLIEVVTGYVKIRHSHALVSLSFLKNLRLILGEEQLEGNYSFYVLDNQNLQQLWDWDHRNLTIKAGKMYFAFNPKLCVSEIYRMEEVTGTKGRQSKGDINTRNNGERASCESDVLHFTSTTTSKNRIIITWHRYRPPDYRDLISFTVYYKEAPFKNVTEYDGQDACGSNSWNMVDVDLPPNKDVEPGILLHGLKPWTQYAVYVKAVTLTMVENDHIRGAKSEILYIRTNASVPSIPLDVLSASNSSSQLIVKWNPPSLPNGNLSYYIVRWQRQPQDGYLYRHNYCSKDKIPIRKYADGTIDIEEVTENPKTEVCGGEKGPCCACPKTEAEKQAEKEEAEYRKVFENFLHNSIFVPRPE
Chain of Insulin-like growth factor 1 receptor (P08069 741-1367 limits assumed): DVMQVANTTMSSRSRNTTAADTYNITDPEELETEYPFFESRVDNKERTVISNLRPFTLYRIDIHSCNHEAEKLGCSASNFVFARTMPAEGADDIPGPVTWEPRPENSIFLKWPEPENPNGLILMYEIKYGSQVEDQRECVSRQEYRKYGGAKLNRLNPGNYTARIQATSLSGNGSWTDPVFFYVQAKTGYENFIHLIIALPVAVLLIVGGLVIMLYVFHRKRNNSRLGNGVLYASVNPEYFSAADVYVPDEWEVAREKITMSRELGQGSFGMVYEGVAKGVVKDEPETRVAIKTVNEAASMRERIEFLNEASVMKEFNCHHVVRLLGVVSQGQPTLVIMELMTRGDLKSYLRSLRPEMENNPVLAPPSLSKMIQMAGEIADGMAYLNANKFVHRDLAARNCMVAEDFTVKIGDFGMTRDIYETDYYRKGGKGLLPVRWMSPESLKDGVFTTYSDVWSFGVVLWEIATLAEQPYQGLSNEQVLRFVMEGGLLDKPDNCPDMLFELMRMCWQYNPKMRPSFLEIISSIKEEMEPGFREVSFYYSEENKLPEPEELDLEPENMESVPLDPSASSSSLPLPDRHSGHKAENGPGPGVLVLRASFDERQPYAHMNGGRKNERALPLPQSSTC
Chain of Ephrin type-A receptor 4 (P54764 whole entry): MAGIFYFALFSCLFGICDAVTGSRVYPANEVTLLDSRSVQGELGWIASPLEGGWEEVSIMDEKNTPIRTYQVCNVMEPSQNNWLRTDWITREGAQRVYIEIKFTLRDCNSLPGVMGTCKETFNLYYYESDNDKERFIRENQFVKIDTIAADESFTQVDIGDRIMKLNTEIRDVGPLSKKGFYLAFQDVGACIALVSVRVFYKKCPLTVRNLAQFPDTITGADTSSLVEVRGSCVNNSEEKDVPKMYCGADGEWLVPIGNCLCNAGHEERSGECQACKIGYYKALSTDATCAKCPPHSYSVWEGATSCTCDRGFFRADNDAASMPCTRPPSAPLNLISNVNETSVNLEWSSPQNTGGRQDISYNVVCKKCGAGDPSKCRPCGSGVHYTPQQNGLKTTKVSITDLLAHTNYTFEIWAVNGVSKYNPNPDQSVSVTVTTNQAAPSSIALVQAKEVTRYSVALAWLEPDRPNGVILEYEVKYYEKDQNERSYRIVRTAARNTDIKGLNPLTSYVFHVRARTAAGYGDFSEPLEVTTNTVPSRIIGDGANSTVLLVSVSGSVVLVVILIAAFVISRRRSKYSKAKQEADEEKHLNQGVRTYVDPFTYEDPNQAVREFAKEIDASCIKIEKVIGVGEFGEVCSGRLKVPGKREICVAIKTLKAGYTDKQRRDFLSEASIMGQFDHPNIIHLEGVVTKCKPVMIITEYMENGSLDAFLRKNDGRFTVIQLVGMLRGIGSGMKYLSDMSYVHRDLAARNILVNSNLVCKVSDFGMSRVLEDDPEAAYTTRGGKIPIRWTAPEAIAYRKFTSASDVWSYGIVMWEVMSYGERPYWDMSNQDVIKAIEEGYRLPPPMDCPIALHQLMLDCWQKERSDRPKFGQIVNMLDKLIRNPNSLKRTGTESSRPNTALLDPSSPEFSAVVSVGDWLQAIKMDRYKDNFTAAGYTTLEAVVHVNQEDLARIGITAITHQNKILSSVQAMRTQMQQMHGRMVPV
Chain of Casein kinase I isoform epsilon (P49674 whole entry, canonical isoform): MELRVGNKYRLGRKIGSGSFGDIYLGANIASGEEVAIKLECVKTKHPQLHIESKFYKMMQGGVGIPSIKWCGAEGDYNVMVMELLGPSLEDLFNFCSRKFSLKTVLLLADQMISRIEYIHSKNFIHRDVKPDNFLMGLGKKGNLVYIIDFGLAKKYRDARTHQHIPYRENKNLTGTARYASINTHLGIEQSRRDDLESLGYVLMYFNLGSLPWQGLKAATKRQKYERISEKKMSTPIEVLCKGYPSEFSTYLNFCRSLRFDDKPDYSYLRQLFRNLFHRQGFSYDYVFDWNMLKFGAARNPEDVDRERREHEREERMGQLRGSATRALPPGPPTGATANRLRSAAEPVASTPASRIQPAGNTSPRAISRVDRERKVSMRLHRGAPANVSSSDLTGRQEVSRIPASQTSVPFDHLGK

As for `CC(=O)c1cnc2ccc(-c3cc(Cl)c(O)c(Cl)c3)nc2c1N[C@H]1CC[C@H](CN(C)C)CC1`, the Kd is > 30 µM (inactive) in [1]; > 30 µM (inactive) in [2]; 0.112 µM (active) in [3]; 0.09 µM (active) in assay [4]; 0.011 µM (active) in [5]; > 30 µM (inactive) in [6]. In addition, the Kd in [7] was 0.311 µM (active); in [8], > 30 µM (inactive); in assay [9], > 30 µM (inactive); in assay [10] it was > 30 µM (inactive); in assay [11], 0.253 µM (active).
Take `COCc1c(-c2ccc(NC(=O)Nc3cc(C(F)(F)F)ccc3F)c(F)c2)c2c(N)ncnn2c1CN1CCOCC1`: the Kd (in assay [12]; in [1]; at Ephrin type-A receptor 4; in [2]; in assay [13]; in assay [3]) was > 30 µM (inactive) in each case. Besides, the Kd in assay [4], in [14], in [5], in assay [6], in [7] and in assay [8] was > 30 µM (inactive) in each case. The Kd in assay [9], in assay [10] and in assay [11] was > 30 µM (inactive) in each case.
For `COCC(=O)NC/C=C/c1ccc2ncnc(Nc3ccc(Oc4ccc(C)nc4)c(C)c3)c2c1` [CP-724714], the Kd (in [12]; in [1]; on Ephrin type-A receptor 4; in [2]; in assay [13]; in [3]) was > 30 µM (inactive) throughout. The Kd in [4], in assay [14], in assay [5], in assay [6], in assay [7] and in assay [8] was > 30 µM (inactive) in each case. The Kd in assay [9], in [10] and in [11] was > 30 µM (inactive) throughout.
Consider `CC(C)(C)c1nc(-c2cccc(NS(=O)(=O)c3c(F)cccc3F)c2F)c(-c2ccnc(N)n2)s1` [DABRAFENIB], for which the Kd in [12] is > 30 µM (inactive); in assay [1], > 30 µM (inactive); on Ephrin type-A receptor 4, > 30 µM (inactive); in assay [13], 1.45 µM (active); in assay [3], > 30 µM (inactive); in [4], > 30 µM (inactive). In addition, the Kd in assay [5] was > 30 µM (inactive); in assay [6], > 30 µM (inactive); in assay [7] it was > 30 µM (inactive); in [9], > 30 µM (inactive); in assay [10], > 30 µM (inactive); in assay [11], 1.07 µM (active).
For `NC(=O)c1c(OCc2c(F)cc(Br)cc2F)nsc1NC(=O)NCCCCN1CCCC1` [OSI-632], the Kd is 1.47 µM in assay [12]; > 30 µM (inactive) in assay [1]; > 30 µM (inactive) at Ephrin type-A receptor 4; > 30 µM (inactive) in assay [13]; > 30 µM (inactive) in assay [3]; > 30 µM (inactive) in assay [4]. Moreover, the Kd in assay [5], in assay [6], in [7], in assay [8] and in [10] was > 30 µM (inactive) in each case.
On to `CNC(=O)c1cc(Oc2ccc(NC(=O)Nc3cc(C(C)(C)C)nn3-c3ccc4ncccc4c3)c(F)c2)ccn1` [REBASTINIB], for which the Kd is > 30 µM (inactive) in [12]; > 30 µM (inactive) in assay [1]; > 30 µM (inactive) on Ephrin type-A receptor 4; > 30 µM (inactive) in assay [2]; 0.072 µM in assay [3]; 0.276 µM (active) in assay [4]. For the same molecule, the Kd in assay [14] is > 30 µM (inactive); in [5], 2.14 µM (active); in assay [6] it was > 30 µM (inactive); in assay [7] it was > 30 µM (inactive); in assay [9], > 30 µM (inactive); in [10], > 30 µM (inactive). In addition, the Kd in [11] was 1.5 µM (active).
In the case of `C[C@@H](NC(=O)c1ncnc(N)c1Cl)c1ncc(C(=O)Nc2cc(C(F)(F)F)c(Cl)cn2)s1` [TOVORAFENIB], the Kd (in [12]; in assay [1]; on Ephrin type-A receptor 4; in [2]; in [13]; in assay [3]) was > 30 µM (inactive) throughout. For the same molecule, the Kd in assay [4] is > 30 µM (inactive); in assay [14] it was > 30 µM (inactive); in assay [5], 0.942 µM (active); in [7], > 30 µM (inactive); in assay [8] it was > 30 µM (inactive); in assay [9], > 30 µM (inactive). In addition, the Kd in assay [10] and in assay [11] was > 30 µM (inactive) each time.
As for `Cc1cc(Nc2ncnc3ccc(NC4=NC(C)(C)CO4)cc23)ccc1Oc1ccn2ncnc2c1` [TUCATINIB], the Kd (in [12]; in assay [1]; at Ephrin type-A receptor 4; in assay [2]; in assay [13]; in assay [3]) was > 30 µM (inactive) throughout. Besides, the Kd in assay [4], in assay [14], in assay [6], in [7], in [8] and in [9] was > 30 µM (inactive) each time. Moreover, the Kd in assay [10] and in assay [11] was > 30 µM (inactive) in each case.

In general, Kd refers to the free concentration of one partner at which half of the binding sites on the other are occupied at equilibrium, for simple one-to-one binding.
